# Assay results published in patent publication US20260365670A1, “EGFR INHIBITORS AND USES THEREOF” (DIZAL (JIANGSU) PHARMACEUTICAL CO., LTD., priority 2022, published 2026).
# Read-outs that look alike come from different tables or passages of the source.
# What was measured:
# [1] = tested on: Ba/F3 cells expressing EGFR mutations; experiment: Cell proliferation assay, Ba/F3 cells expressing EGFR mutations (CellTiter-Glo, 72 hours); assay type: cell-based; conditions: Mus musculus, BaF3, 72 h, CellTiter-Glo
# Summary of the method: (§1)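 Luminescent viable-cell counts were taken on a day 0 plate at dosing and again at endpoint. Proliferation was calculated as (sample − G0)/(DMSO − G0). Seeding was 5000 Ba/F3 or 500 PC-9 cells per well in RPMI1640, followed by overnight attachment and serial compound dilutions. The GI50 was fitted.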
# [2] = biological target: T1, EGFR[T790M/C797S/L858R] (Homo sapiens, UniProt P00533, C797S/L858R/T790M); experiment: Inhibition of EGFR[T790M/C797S/L858R] biochemical enzymatic activity (HTRF); conditions: EGFR T790M-C797S-L858R, 1 mM ATP, 1 h, room temperature, read-out: IC50 (nM) @T790M- C797S - L858R
# T1 construct: purchased Carna Bio
# Summary of the method: (§2)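 Enzyme preincubated with compound, then ATP (1 mM) and TK substrate-biotin (1 μM) added; 1 h RT; stopped with EDTA-containing detection mix; HTRF read (ex 320, em 615/665 nm); IC50 by 4-parameter logistic fit.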
# [3] = tested on: A-431; experiment: Cell proliferation GI50, A-431 cells (Table 6); assay type: cell-based; conditions: Homo sapiens, A-431, A-431 cells
# [4] = biological target: T2, EGFR Exon19Del/T790M (Homo sapiens, UniProt P00533, DEL746-750/T790M); experiment: Inhibition of EGFR Exon19Del/T790M biochemical enzymatic activity (HTRF); conditions: EGFR Del19-T790M, 1 mM ATP, 1 h, room temperature, read-out: IC50 (nM) @Del19-T790M
# T2 construct: purchased Carna Bio
# Summary of the method: as §2
# [5] = biological target: T3, EGFR Exon19Del (Homo sapiens, UniProt P00533, DEL746-750); experiment: Inhibition of EGFR Exon19Del biochemical enzymatic activity (HTRF); conditions: EGFR Del19, 1 mM ATP, 1 h, room temperature, read-out: IC50 @Del19
# T3 construct: purchased Carna Bio
# Summary of the method: as §2
# [6] = biological target: T4, EGFR (C797S L858R) (Homo sapiens, UniProt P00533, C797S/L858R); experiment: Inhibition of EGFR (C797S L858R) biochemical enzymatic activity (HTRF); conditions: EGFR L858-C797S, 1 mM ATP, 1 h, room temperature, read-out: IC50 (nM) @L858-C797S
# T4 construct: purchased signalchem
# Summary of the method: as §2
# [7] = biological target: T5, EGFR wild type (Homo sapiens, UniProt P00533); experiment: Inhibition of EGFR wild type biochemical enzymatic activity (HTRF); conditions: EGFR WT, 1 mM ATP, 1 h, room temperature, read-out: IC50 (nM) @WT
# T5 construct: purchased Carna Bio
# Summary of the method: as §2
# [8] = biological target: T6, EGFR L858R (Homo sapiens, UniProt P00533, L858R); experiment: Inhibition of EGFR L858R biochemical enzymatic activity (HTRF); conditions: 1 mM ATP, 1 h, room temperature, read-out: IC50 (nM) @L858R
# T6 construct: purchased Carna Bio
# Summary of the method: as §2
# [9] = biological target: T7, EGFR[T790M/C797S/d746-750] (Homo sapiens, UniProt P00533, C797S/DEL746-750/T790M); experiment: Inhibition of EGFR[T790M/C797S/d746-750] biochemical enzymatic activity (HTRF); conditions: EGFR T790M-C797S-Del19, 1 mM ATP, 1 h, room temperature, read-out: IC50 (nM) @T790M - C797S - Del19
# T7 construct: purchased Carna Bio
# Summary of the method: as §2
# [10] = biological target: T8, EGFR (d746-750 C797S) (Homo sapiens, UniProt P00533, C797S/DEL746-750); experiment: Inhibition of EGFR (d746-750 C797S) biochemical enzymatic activity (HTRF); conditions: EGFR Del19-C797S, 1 mM ATP, 1 h, room temperature, read-out: IC50 (nM) @Del19-C797S
# T8 construct: purchased signalchem
# Summary of the method: as §2
# [11] = tested on: PC-9; experiment: Cell proliferation assay, PC-9 cells (CellTiter-Glo, 72 hours); assay type: cell-based; conditions: Homo sapiens, PC-9, 72 h, PC9 cells, CellTiter-Glo, read-out: PC9 GI50
# Summary of the method: as §1
# [12] = biological target: T9, EGFR L858R/T790M (Homo sapiens, UniProt P00533, L858R/T790M); experiment: Inhibition of EGFR L858R/T790M biochemical enzymatic activity (HTRF); conditions: EGFR L858R-T790M, 1 mM ATP, 1 h, room temperature, read-out: IC50 (nM) @L858R-T790M
# T9 construct: purchased Carna Bio
# Summary of the method: as §2
# [13] = BaF3 cells, EGFR DEL19-C797S, read-out: DEL19-C797S/BaF3 GI50
# [14] = BaF3 cells, EGFR DEL19-T790-C797S, read-out: DEL19-T790-C797S/BaF3 GI50
# [15] = BaF3 cells, EGFR L858R, read-out: L858R/BaF3 GI50
# [16] = BaF3 cells, EGFR L858R-C797S, read-out: L858R-C797S/BaF3 GI50
# [17] = BaF3 cells, EGFR L858R-T790-C797S, read-out: L858R-T790-C797S/BaF3 GI50
# [18] = BaF3 cells, EGFR L858R-T790M, read-out: L858R-T790M/BaF3 GI50
# [19] = EGFR DEL19-T790M, read-out: DEL19-T790M GI50
# T6 sequence (P00533 25-1210 L858R): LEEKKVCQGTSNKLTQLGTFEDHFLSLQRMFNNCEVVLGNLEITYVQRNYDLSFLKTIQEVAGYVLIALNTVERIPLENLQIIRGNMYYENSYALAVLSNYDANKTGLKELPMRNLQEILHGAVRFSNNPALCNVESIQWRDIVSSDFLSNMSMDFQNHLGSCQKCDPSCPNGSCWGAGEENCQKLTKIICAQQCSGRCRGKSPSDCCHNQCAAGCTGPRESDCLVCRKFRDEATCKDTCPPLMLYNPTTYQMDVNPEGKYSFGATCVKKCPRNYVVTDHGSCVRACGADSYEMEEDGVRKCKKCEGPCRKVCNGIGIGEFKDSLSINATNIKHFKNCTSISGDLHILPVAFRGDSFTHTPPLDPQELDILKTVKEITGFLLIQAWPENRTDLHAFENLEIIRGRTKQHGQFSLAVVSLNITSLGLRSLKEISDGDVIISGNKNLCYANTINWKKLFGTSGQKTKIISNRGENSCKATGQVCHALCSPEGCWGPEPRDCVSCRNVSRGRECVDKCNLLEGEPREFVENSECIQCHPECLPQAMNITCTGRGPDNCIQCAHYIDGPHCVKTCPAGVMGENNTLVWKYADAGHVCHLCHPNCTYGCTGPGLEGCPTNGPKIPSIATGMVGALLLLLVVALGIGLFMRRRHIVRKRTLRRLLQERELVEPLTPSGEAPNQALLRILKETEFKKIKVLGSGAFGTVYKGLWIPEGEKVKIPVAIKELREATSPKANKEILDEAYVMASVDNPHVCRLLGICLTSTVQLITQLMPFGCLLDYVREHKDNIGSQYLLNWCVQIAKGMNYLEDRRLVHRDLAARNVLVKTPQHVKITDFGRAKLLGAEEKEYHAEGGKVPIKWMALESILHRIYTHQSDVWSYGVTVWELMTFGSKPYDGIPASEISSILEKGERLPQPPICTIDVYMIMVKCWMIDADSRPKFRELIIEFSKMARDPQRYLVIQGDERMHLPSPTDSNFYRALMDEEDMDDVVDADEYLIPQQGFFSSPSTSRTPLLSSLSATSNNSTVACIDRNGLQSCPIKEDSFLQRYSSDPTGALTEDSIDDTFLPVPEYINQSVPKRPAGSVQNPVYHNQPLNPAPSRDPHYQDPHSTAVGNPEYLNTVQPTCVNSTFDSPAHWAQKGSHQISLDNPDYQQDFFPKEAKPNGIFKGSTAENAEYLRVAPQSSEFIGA
# T7 sequence (P00533 with tags, fused parts or gaps DEL746-750/T790M/C797S limits assumed): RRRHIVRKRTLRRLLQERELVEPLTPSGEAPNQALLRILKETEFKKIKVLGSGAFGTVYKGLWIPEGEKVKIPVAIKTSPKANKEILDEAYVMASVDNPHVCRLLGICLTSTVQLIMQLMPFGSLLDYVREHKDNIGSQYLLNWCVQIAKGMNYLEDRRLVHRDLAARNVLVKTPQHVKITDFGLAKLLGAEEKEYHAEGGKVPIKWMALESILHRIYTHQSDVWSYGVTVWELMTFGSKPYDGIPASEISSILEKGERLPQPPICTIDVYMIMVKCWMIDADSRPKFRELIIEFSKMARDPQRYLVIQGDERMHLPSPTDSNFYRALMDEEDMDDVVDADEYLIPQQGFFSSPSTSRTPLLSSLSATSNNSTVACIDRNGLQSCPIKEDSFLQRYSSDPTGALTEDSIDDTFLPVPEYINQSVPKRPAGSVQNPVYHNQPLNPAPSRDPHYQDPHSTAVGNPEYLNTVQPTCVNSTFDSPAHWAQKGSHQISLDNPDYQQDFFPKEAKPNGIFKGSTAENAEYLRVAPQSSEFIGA
# T2 sequence (P00533 with tags, fused parts or gaps DEL746-750/T790M limits assumed): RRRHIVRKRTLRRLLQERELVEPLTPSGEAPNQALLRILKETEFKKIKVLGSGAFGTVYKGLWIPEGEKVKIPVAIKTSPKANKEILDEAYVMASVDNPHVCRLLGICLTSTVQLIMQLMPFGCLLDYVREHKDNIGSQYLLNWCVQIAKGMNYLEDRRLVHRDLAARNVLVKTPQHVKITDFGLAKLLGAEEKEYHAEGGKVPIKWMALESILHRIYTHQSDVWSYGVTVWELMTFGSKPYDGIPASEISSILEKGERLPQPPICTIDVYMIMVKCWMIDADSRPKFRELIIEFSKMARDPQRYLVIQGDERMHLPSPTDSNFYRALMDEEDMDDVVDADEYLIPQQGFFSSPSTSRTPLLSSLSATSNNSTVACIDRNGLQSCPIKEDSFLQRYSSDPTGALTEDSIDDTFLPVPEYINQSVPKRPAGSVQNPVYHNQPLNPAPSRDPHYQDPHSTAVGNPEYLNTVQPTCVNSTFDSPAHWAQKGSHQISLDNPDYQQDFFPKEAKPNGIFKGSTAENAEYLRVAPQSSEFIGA
# T8 sequence (P00533 with tags, fused parts or gaps DEL746-750/C797S limits assumed): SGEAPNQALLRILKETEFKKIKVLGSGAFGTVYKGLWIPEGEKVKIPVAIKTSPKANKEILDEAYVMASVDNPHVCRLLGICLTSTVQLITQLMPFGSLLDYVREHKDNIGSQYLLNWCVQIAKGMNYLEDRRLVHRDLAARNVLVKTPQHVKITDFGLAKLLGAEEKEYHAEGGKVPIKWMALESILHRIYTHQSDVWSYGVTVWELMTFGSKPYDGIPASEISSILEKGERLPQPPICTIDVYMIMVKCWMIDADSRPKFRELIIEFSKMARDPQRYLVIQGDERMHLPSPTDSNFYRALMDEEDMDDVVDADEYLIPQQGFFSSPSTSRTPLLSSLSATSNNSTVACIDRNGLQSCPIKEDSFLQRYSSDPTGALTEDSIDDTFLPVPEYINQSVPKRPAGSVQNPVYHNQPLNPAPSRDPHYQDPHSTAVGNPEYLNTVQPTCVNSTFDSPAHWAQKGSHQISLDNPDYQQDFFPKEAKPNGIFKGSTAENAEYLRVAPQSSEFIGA
# T3 sequence (P00533 with tags, fused parts or gaps DEL746-750 limits assumed): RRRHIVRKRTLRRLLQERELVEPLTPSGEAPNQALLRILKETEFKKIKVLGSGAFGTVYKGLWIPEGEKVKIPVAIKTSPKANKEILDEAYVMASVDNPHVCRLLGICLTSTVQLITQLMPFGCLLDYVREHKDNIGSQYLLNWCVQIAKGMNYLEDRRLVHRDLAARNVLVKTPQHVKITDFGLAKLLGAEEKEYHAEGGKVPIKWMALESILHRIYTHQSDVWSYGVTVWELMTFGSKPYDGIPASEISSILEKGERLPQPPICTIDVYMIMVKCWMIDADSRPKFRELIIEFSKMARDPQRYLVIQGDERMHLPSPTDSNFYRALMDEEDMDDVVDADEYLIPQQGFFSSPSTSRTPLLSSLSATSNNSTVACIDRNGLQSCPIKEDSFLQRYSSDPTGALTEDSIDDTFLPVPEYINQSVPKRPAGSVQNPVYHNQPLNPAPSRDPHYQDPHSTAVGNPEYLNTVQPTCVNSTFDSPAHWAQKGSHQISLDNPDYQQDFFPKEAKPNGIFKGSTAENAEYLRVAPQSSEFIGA
# T4 sequence (P00533 25-1210 C797S/L858R): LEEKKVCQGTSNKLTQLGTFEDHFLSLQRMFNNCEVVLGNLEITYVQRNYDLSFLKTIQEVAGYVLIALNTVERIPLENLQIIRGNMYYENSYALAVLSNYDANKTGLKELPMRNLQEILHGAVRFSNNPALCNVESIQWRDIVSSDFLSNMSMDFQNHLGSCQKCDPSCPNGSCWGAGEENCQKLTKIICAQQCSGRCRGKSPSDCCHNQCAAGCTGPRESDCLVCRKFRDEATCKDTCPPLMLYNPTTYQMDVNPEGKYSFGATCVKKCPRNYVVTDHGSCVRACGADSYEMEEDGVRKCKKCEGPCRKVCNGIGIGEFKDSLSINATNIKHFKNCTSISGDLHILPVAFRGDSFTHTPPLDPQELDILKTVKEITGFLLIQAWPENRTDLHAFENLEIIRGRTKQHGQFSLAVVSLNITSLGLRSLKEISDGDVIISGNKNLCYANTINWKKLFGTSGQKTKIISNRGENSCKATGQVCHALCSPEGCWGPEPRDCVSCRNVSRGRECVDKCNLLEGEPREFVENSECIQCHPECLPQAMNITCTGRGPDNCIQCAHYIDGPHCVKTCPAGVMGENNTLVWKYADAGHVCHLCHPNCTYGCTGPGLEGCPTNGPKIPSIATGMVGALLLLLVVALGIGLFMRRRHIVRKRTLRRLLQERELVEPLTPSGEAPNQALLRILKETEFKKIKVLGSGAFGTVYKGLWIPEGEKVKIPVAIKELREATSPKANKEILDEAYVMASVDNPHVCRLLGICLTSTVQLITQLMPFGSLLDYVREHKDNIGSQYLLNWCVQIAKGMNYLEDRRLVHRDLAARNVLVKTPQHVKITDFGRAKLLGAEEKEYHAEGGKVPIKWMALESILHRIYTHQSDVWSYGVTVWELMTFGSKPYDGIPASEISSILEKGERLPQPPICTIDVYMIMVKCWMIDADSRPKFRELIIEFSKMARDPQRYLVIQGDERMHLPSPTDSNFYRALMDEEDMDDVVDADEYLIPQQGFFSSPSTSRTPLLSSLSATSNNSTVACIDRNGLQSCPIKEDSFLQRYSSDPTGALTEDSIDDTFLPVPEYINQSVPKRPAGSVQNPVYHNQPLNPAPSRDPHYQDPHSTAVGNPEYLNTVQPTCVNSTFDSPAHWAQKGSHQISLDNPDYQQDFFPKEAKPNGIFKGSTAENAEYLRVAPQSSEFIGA
Compound,"GI50 [1, 13]","GI50 [1, 14]","GI50 [1, 15]","GI50 [1, 16]","GI50 [1, 17]","GI50 [1, 18]","GI50 [1, 19]",IC50 [2],GI50 [3],IC50 [4],IC50 [5],IC50 [6],IC50 [7],IC50 [8],IC50 [9],IC50 [10],GI50 [11],IC50 [12]
C[C@@H]1CCCOc2c(cnn2C)-c2cc(cn(C)c2=O)C(=O)Nc2nc3ccc(N4CCC5(CN(C)C5)C4)cc3n2C1 [Example A43],1 nM,3.6 nM,2.6 nM,3.4 nM,2.5 nM,9.5 nM,5.2 nM,7.1 nM,508 nM,3.7 nM,4.5 nM,8.9 nM,295 nM,21 nM,4.4 nM,2.2 nM,5.7 nM,13 nM
C[C@@H]1CCCOc2c(cnn2C)-c2cc(cn(C)c2=O)C(=O)Nc2nc3ccc(N4CC(N5CCN(C)CC5)C4)cc3n2C1 [Example A46],1.2 nM,6.8 nM,3.1 nM,2.4 nM,2 nM,12 nM,8.1 nM,5.7 nM,221 nM,4.1 nM,2.6 nM,8.5 nM,104 nM,14 nM,3.9 nM,2.2 nM,5.4 nM,8.5 nM
C[C@@H]1CCCOc2c(cnn2C)-c2cc(cn(C)c2=O)C(=O)Nc2nc3ccc(N4CCC(N(C)C)C(F)(F)C4)cc3n2C1 (stereo partly drawn) [Example A51],7.6 nM,35 nM,46 nM,38 nM,36 nM,65 nM,65 nM,24 nM,1040 nM,12 nM,13 nM,31 nM,1830 nM,94 nM,12 nM,4.7 nM,62 nM,33 nM
C[C@@H]1CCCOc2c(cnn2C)-c2cc(cn(C)c2=O)C(=O)Nc2nc3ccc(N4CCC5(CC4)CCN5C)cc3n2C1 [Example A52],1.3 nM,6.3 nM,8.1 nM,8.4 nM,9.6 nM,13.1 nM,9.6 nM,3.9 nM,480 nM,3.5 nM,1.3 nM,4.7 nM,54 nM,6.3 nM,3.4 nM,1.4 nM,15.4 nM,6.6 nM
C[C@@H]1CCCOc2c(cnn2C)-c2cc(cn(C)c2=O)C(=O)Nc2nc3ccc(N4CCN(CC(F)(F)F)CC4)cc3n2C1 [Example A53],7.4 nM,27 nM,28 nM,34 nM,35 nM,51 nM,49 nM,21 nM,639 nM,12 nM,15 nM,135 nM,> 5000 nM,462 nM,13 nM,7.2 nM,51 nM,70 nM

# Continued by falling GI50 [1, 13], values first:
"GI50 [1, 13]","GI50 [1, 14]","GI50 [1, 15]","GI50 [1, 16]","GI50 [1, 17]","GI50 [1, 18]","GI50 [1, 19]",IC50 [2],GI50 [3],IC50 [4],IC50 [5],IC50 [6],IC50 [7],IC50 [8],IC50 [9],IC50 [10],GI50 [11],IC50 [12],Compound
9.4 nM,48 nM,20 nM,26 nM,21 nM,94 nM,53 nM,4.4 nM,573 nM,2.8 nM,3.1 nM,28 nM,2250 nM,40 nM,3.1 nM,2.1 nM,38 nM,5 nM,C[C@@H]1CCCOc2c(cnn2C)-c2cc(cn(C)c2=O)C(=O)Nc2nc3ccc(N4CCN(C5CC5)CC4)cc3n2C1 [Example A48]
2 nM,14 nM,4.4 nM,7 nM,5.3 nM,27 nM,16 nM,8.8 nM,232 nM,3.3 nM,4.9 nM,15 nM,236 nM,34 nM,3.1 nM,3 nM,14 nM,15 nM,C[C@@H]1CCCOc2c(cnn2C)-c2cc(cn(C)c2=O)C(=O)Nc2nc3ccc(N4CC5(CCCN5C)C4)cc3n2C1 [Example A44]
2 nM,12 nM,5.7 nM,7 nM,5.3 nM,72 nM,18 nM,5.1 nM,251 nM,6 nM,5.5 nM,16 nM,694 nM,45 nM,4.9 nM,2.8 nM,12 nM,8.1 nM,CCN1CCN(c2ccc3nc4n(c3c2)C[C@H](C)CCCOc2c(cnn2C)-c2cc(cn(C)c2=O)C(=O)N4)CC1 [Example A49]
1.7 nM,9.7 nM,4 nM,3.2 nM,3.4 nM,17 nM,12 nM,4.9 nM,200 nM,4.2 nM,4.5 nM,20 nM,1130 nM,46 nM,4.2 nM,2.5 nM,7 nM,9.5 nM,C[C@@H]1CCCOc2c(cnn2C)-c2cc(cn(C)c2=O)C(=O)Nc2nc3ccc(N4CC5(CN(C)CCO5)C4)cc3n2C1 [Example A47]
1 nM,5.3 nM,2.7 nM,2.4 nM,1.9 nM,9.5 nM,7.5 nM,4.8 nM,126 nM,3.8 nM,2.4 nM,7.4 nM,124 nM,15 nM,4 nM,1.8 nM,6.3 nM,6.7 nM,CC(C)N1CCN(c2ccc3nc4n(c3c2)C[C@H](C)CCCOc2c(cnn2C)-c2cc(cn(C)c2=O)C(=O)N4)CC1 [Example A50]
0.47 nM,1.8 nM,0.75 nM,2.1 nM,1.6 nM,8.7 nM,2.2 nM,5.1 nM,279 nM,5.4 nM,3 nM,6.7 nM,42 nM,8.9 nM,4.5 nM,2.5 nM,2.5 nM,6.8 nM,C[C@@H]1CCCOc2c(cnn2C)-c2cc(cn(C)c2=O)C(=O)Nc2nc3ccc(N4CC5(CCN(C)C5)C4)cc3n2C1 [Example A42]
